Laboratory results from ChEMBL document CHEMBL1201862, “PubChem BioAssay data set” (2004).
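Tested at 5 concentrations; 48 h exposure; 96-well plates; endpoints linearly interpolated, else capped at highest concentration. Abbreviation: GI50, concentration required for 50% inhibition of growth.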 Active and inactive are the calls of the source. Rule as the data show it: active = GI50 up to about 1.1 µM and inactive = higher.

Experiments:
Assay in all cases: DTP human tumour cell line panel, 48 h
[1] = test system: A549
[2] = test system: BT-549
[3] = test system: CAKI-1
[4] = test system: CCRF-CEM
[5] = test system: COLO 205
[6] = test system: HCC 2998
[7] = test system: HCT-15
[8] = test system: HL-60
[9] = test system: Hs-578T
[10] = test system: NCI-H23
[11] = test system: NCI-H460
[12] = test system: NCI/ADR-RES
[13] = test system: OVCAR-4
[14] = test system: PC-3
[15] = test system: RPMI-8226
[16] = test system: SF-295
[17] = test system: SK-MEL-28
[18] = test system: SK-MEL-5
[19] = test system: SNB-19
[20] = test system: UACC-257

| Structure (SMILES) | GI50 [1] | GI50 [2] | GI50 [3] | GI50 [4] | GI50 [5] | GI50 [6] | GI50 [7] [µM] | GI50 [8] | GI50 [9] | GI50 [10] | GI50 [11] | GI50 [12] | GI50 [13] | GI50 [14] | GI50 [15] | GI50 [16] | GI50 [17] | GI50 [18] | GI50 [19] | GI50 [20] |
| --- | --- | --- | --- | --- | --- | --- | --- | --- | --- | --- | --- | --- | --- | --- | --- | --- | --- | --- | --- | --- |
| C/C(=N/NC(N)=S)c1ccc[nH]1 | > 100 µM (inactive) | > 100 µM (inactive) | > 100 µM (inactive) | > 100 µM (inactive) | > 100 µM (inactive) | > 100 µM (inactive) | > 100 | > 100 µM (inactive) | > 100 µM (inactive) | > 100 µM (inactive) | > 100 µM (inactive) | > 100 µM (inactive) | 78.9 µM (inactive) | > 100 µM (inactive) | > 100 µM (inactive) | > 100 µM (inactive) | > 100 µM (inactive) | > 100 µM (inactive) | > 100 µM (inactive) | > 100 µM (inactive) |
| CC(=O)CC1CCC(=O)/C=C/C(=O)OC(CC(C)=O)CCC(=O)/C=C/C(=O)O1 (stereo not given) | 21.7 µM (inactive) | 3.2 µM (inactive) | 6.53 µM (inactive) | 1.6 µM (inactive) | 1.77 µM (inactive) | 22.8 µM (inactive) | 2.1 | 2.45 µM (inactive) | 27.9 µM (inactive) | 17.5 µM (inactive) | 18.5 µM (inactive) | 19.9 µM (inactive) | 7.83 µM (inactive) | 15 µM (inactive) | 2.9 µM (inactive) | 13.6 µM (inactive) | 7.33 µM (inactive) | 13.8 µM (inactive) | 19.8 µM (inactive) | 15.5 µM (inactive) |
| O=S(=O)(O)C(Cc1nc2ccccc2[nH]1)S(=O)(=O)OCCC1S(=O)(=O)OCCOS1(=O)=O (stereo not given) | > 100 µM (inactive) | > 100 µM (inactive) | > 100 µM (inactive) | > 100 µM (inactive) | > 100 µM (inactive) | > 100 µM (inactive) | > 100 | > 100 µM (inactive) | > 100 µM (inactive) | > 100 µM (inactive) | > 100 µM (inactive) | > 100 µM (inactive) | > 100 µM (inactive) | > 100 µM (inactive) | > 100 µM (inactive) | > 100 µM (inactive) | > 100 µM (inactive) | > 100 µM (inactive) | > 100 µM (inactive) | > 100 µM (inactive) |
| O=C(C(Cl)=C(Nc1ccccc1)Nc1ccccc1)C(Cl)Cl | 38.5 µM (inactive) | 37.2 µM (inactive) | 18.8 µM (inactive) | 28.5 µM (inactive) | 30.6 µM (inactive) | 19 µM (inactive) | 11 | 17.4 µM (inactive) | > 100 µM (inactive) | 41.4 µM (inactive) | 25.1 µM (inactive) | 40.6 µM (inactive) | 36.1 µM (inactive) | 36.9 µM (inactive) | 29.6 µM (inactive) | 34 µM (inactive) | 33.2 µM (inactive) | 14.9 µM (inactive) | 26.2 µM (inactive) | 82.8 µM (inactive) |
| Cc1cccc(NS(=O)(=O)c2ccc(/N=N/c3c(O)c(C(=O)O)cc4ccccc34)cc2)n1 | > 100 µM (inactive) | > 100 µM (inactive) | > 100 µM (inactive) | > 100 µM (inactive) | > 100 µM (inactive) | > 100 µM (inactive) | > 100 | > 100 µM (inactive) | > 100 µM (inactive) | > 100 µM (inactive) | > 100 µM (inactive) | > 100 µM (inactive) | > 100 µM (inactive) | > 100 µM (inactive) | > 100 µM (inactive) | > 100 µM (inactive) | > 100 µM (inactive) | > 100 µM (inactive) | > 100 µM (inactive) | > 100 µM (inactive) |
| NCCCc1c(-c2ccccc2)[nH]c(N)nc1=O | > 100 µM (inactive) | > 100 µM (inactive) | > 100 µM (inactive) | > 100 µM (inactive) | > 100 µM (inactive) | > 100 µM (inactive) | > 100 | > 100 µM (inactive) | > 100 µM (inactive) | > 100 µM (inactive) | > 100 µM (inactive) | > 100 µM (inactive) | > 100 µM (inactive) | > 100 µM (inactive) | > 100 µM (inactive) | > 100 µM (inactive) | > 100 µM (inactive) | > 100 µM (inactive) | > 100 µM (inactive) | > 100 µM (inactive) |
| Cc1ccc2oc(=O)c(C(=O)Nc3nc(C45CC6CC(CC(C6)C4)C5)cs3)cc2c1 | > 100 µM (inactive) | > 100 µM (inactive) | > 100 µM (inactive) | > 100 µM (inactive) | > 100 µM (inactive) | > 100 µM (inactive) | > 100 | > 100 µM (inactive) | > 100 µM (inactive) | > 100 µM (inactive) | > 100 µM (inactive) | > 100 µM (inactive) | > 100 µM (inactive) | > 100 µM (inactive) | > 100 µM (inactive) | > 100 µM (inactive) | > 100 µM (inactive) | > 100 µM (inactive) | > 100 µM (inactive) | > 100 µM (inactive) |
| CC[C@@]1(O)C(=O)OCc2c1cc1n(c2=O)Cc2c-1nc1ccccc1c2/C=N\NC(=O)C[n+]1ccccc1 | 0.513 µM (active) | 7.57 µM (inactive) | 0.151 µM (active) | 0.0357 µM (active) | 12.1 µM (inactive) | 8.13 µM (inactive) | 2.9 | 0.225 µM (active) | > 64.1 µM (inactive) | 0.388 µM (active) | 0.117 µM (active) | 0.817 µM (active) | 8.57 µM (inactive) | 4.49 µM (inactive) | 1.67 µM (inactive) | 0.247 µM (active) | 3.29 µM (inactive) | 0.366 µM (active) | 0.267 µM (active) | 2.82 µM (inactive) |
| CC(C)C(Sc1nc(N)nc2nc[nH]c12)C(=O)O (stereo not given) | > 100 µM (inactive) | > 100 µM (inactive) | > 100 µM (inactive) | > 100 µM (inactive) | > 100 µM (inactive) | > 100 µM (inactive) | > 100 | > 100 µM (inactive) | > 100 µM (inactive) | > 100 µM (inactive) | > 100 µM (inactive) | > 100 µM (inactive) | > 100 µM (inactive) | > 100 µM (inactive) | > 100 µM (inactive) | > 100 µM (inactive) | > 100 µM (inactive) | > 100 µM (inactive) | > 100 µM (inactive) | > 100 µM (inactive) |
| CCC1(CC)C(=O)N(C(=O)c2cc(OC)c(OC)c(OC)c2)N(C(=O)c2cc(OC)c(OC)c(OC)c2)C1=O | > 50 µM (inactive) | > 50 µM (inactive) | > 50 µM (inactive) | > 50 µM (inactive) | > 50 µM (inactive) | > 50 µM (inactive) | > 50 | 28.5 µM (inactive) | > 50 µM (inactive) | > 50 µM (inactive) | > 50 µM (inactive) | > 50 µM (inactive) | > 50 µM (inactive) | > 50 µM (inactive) | > 50 µM (inactive) | 24.8 µM (inactive) | > 50 µM (inactive) | 46.1 µM (inactive) | > 50 µM (inactive) | > 50 µM (inactive) |
